Test results from patent publication US6482799B1, “Self-preserving multipurpose ophthalmic solutions incorporating a polypeptide antimicrobial” (The Regents of the University of California, priority 1999, dated 2002).

Tests used:
[1] = tested on: Pseudomonas aeruginosa (ATCC 27853); assay: Protocol 1 kill curve / MIC, 1 hour at 37° C. in glass tubes; format: cell-based
Protocol: This protocol is used to develop dose-response (kill) curves to calculate the minimal inhibitory concentration of an indolicidin (e.g., L-indolicidin (L-IND)) when formulated in a commercially available phosphate buffered saline (PBS) solution. In addition, for comparative purposes, kill curves are established for the following three commonly available commercial lens-care products containing different preservatives:
An initial dose range experiment is performed to determine a suitable dose range for the final experiment. The indolicidin (e.g., L-IND) is tested in the preliminary toxicity experiment at 13 different dose levels in a range between 500 μg/ml and 0.125 μg/ml. The 3 control samples with preservatives are tested at 13 different dose levels with the highest dose level representing the undiluted solution. […]
Viable counts of the bacteria are performed by 10-fold serial dilutions in sterile PBS and by plating 0.1 ml aliquots on nutrient agar plates. […] The plates are incubated overnight at 37° C. and colonies are counted and recorded. […]
Survival is expressed as number of surviving bacteria (CFU/ml) for each dilution of the test article and control solutions. The lowest dose of the test article that results in complete kill of the test organism, compared to the non-exposed control, is determined to be the MIC value. […]

Escherichia coli ML35 = assay: Dose response and kinetics of antimicrobial activity in 10 mM sodium phosphate buffer; format: cell-based
Protocol: The time course and dose-dependence of the antimicrobial activity of an antimicrobial peptide can be determined by incubating a microorganism with the antimicrobial peptide and determining the viability after various times of incubation or after treatment with various concentrations of the antimicrobial peptide.
Exemplary assays using indolicidin and indolicidin analogs were performed in 10 mM sodium phosphate buffer, pH 7.4, at 37° C., as described by Selsted et al. (1985) Infect. Immun. 45:150-154, which is incorporated herein by reference.
The dose response of a gram negative bacterial strain, Escherichia coli ML35, and a gram positive bacterial strain, Staphylococcus aureus 502A, to indolicidin was determined by incubating 2×10^6 colony forming units (CFU) of log phase bacteria with 0-25 μg/mL of indolicidin for two hours. Following incubation, the cultures were serially diluted and plated on nutrient agar. Viability of both gram negative and gram positive bacteria was reduced by at least four orders of magnitude in incubations containing 10 μg/mL of indolicidin. E. coli was more susceptible than S. aureus, as >95% of the input cells were killed after 2 hr incubation with 2.5 μg/mL indolicidin. […]
The kinetics of indolicidin antimicrobial activity was evaluated by incubating 2×10^6 E. coli with […] of indolicidin for 1 to 40 min. […]

[2] = Toxicity study, intravaginal administration
Protocol: The objective of this study was to determine if the treatment regimen proposed for the efficacy study of the defensin formulations caused target organ toxicity. This study is not intended to support application for research or marketing permits for products regulated by governmental agencies. The purpose of this study is to provide range-finding data is therefore, not within the scope of Good Laboratory Practice Guidelines.
Mice were treated by intravaginal administration twice daily at ˜12 hour intervals administered on Days 1 through 4. Mice were treated intraperitoneally three times on Day 1 at ˜4 hour intervals, and twice daily at ˜12 hour intervals administered on days 2 through 4.
Dosing volumes were 0.1 mL/mouse (intravaginal), 0.1 mL/mouse (intraperitoneal), and 20 μL/rabbit. The study lasted 5 days, with day 1 the first day of dose administration.
The dose formulations were supplied in pyrogen-free saline.

## CC[C@H](C)[C@H](N)C(=O)N[C@@H](CC(C)C)C(=O)N1CCC[C@H]1C(=O)N[C@@H](Cc1c[nH]c2ccccc12)C(=O)N[C@@H](CCCCN)C(=O)N[C@@H](Cc1c[nH]c2ccccc12)C(=O)N1CCC[C@H]1C(=O)N[C@@H](Cc1c[nH]c2ccccc12)C(=O)N[C@@H](Cc1c[nH]c2ccccc12)C(=O)N1CCC[C@H]1C(=O)N[C@@H](Cc1c[nH]c2ccccc12)C(=O)N[C@@H](CCCNC(=N)N)C(=O)N[C@@H](CCCNC(=N)N)C(N)=O [L-indolicidin, H2N-ILPWKWPWWPWRR-CONH2]
[1]; all dose levels 100-6.25 μg/ml, 10 mM phosphate buffer pH 7.4, 2.01×10^5 CFU/ml
  survival: 100%
[1]; all dose levels 5,000-1.25 μg/ml in PBS, 1 hour 37° C., 5.9×10^5 CFU/ml
  survival: 100%
Escherichia coli ML35; 10 μg/mL indolicidin, 2 hours, 10 mM sodium phosphate buffer pH 7.4, 37° C., 2×10^6 CFU
  Viability reduction: at least four
Escherichia coli ML35; 25 μ/mL indolicidin, after 20 min
  culture viability: essentially was sterilized
[2]; 0.1 mL/mouse at 10, 100 or 1000 μg/mL, BPN-A-amide at 30, 300 or 300 μ/mL
  Tissues from the reproductive tract (histology): within normal limits
[2]; 10, 100 or 1000 μg/mL, BPN-A-amide 30, 300 or 3000 μg/mL
  deaths or clinical signs of toxicity: No deaths or biologically significant clinical signs of toxicity
